# US20160146819A1, “CLASSIFICATION SYSTEM, METHODS AND KIT FOR CLASSIFYING, PREDICTING AND TREATING BREAST CANCER” (UNIVERSITY OF MIAMI, priority 2013, published 2016)
# Entries after “also recorded” stand apart in the source; their conditions may differ.
# Tested on: MDA-MB-453 breast cancer cell line (HR2+/HER2+, ER-negative)
# Assay: Cell proliferation assay, MDA-MB-453 cells
# Format: cell-based, human
# Details: MDA-MB-453 (ER-negative control); ICI 182,780 100 nM alone
# Description: All cell lines were cultured according to ATCC's guidelines. BT20, HCC1187, MDAMB468 and SUM159 cells were trypsinized with 0.05% trypsin/EDTA and plated at appropriate densities (BT20: 6,000, HCC1187: 10,000, MDAMB468: 4,000 and SUM159: 1,000 cells/well) in 96 well plates in DMEM+10% FBS. The next day Calcitriol and Taxol were added at concentrations of 25 nM and 1.5 nM respectively (Day0). For ZR75B, 4000 cells/well were plated in 96 well plates in DMEM+10% FBS. […] Calcitriol and 5 nM IC1180,782 were added the next day with fresh medium (Day0). Media was refreshed every two days and cell proliferation assay was performed on day 6 for above cell lines. The T47D cells were trypsinized with phenol red free Triple Express (Invitrogen) and washed once with PBS and 10,000 cells/well were plated in phenol red free DMEM+5% charcoal stripped FBS (CSFBS) in 96 well plates and cultured for 3 days. On the fourth day, 10 nM 17 beta estradiol (E2) was added into all the wells except non-drug treatment group, in addition to 10 nM IC1180,782, 10 nM R1881 and 50 nM Calcitriol in different groups with fresh phenol red free DMEM+5% CSFBS (Day0). […] All the proliferation assays were carried out using cell titer blue reagent (Promega) and fluorescence was measured using Bio-Tek spectrophotometer at 530/25 nm (excitation) and 590/35 nm (emission). […]
structure (smiles),measurement,value
"C[C@]12CC[C@@H]3c4ccc(O)cc4C[C@@H](CCCCCCCCC[S+]([O-])CCCC(F)(F)C(F)(F)F)[C@H]3[C@@H]1CC[C@@H]2O (stereo partly shown) [ICI 182,780]",cell proliferation,no inhibition was observed; also recorded: no inhibition of cell proliferation
